This note sets out measurements from patent US20050032754A1, “5,6-Trans-2-alkylvitamin D derivatives” (Hiroaki TAKAYAMA, priority 2000, published 2005).

The target of the assay is T1, Bovine thymus 1α,25-dihydroxyvitamin D3 receptor (VDR) (Bos taurus, UniProt Q28037).
T1 sequence (Q28037 1-426): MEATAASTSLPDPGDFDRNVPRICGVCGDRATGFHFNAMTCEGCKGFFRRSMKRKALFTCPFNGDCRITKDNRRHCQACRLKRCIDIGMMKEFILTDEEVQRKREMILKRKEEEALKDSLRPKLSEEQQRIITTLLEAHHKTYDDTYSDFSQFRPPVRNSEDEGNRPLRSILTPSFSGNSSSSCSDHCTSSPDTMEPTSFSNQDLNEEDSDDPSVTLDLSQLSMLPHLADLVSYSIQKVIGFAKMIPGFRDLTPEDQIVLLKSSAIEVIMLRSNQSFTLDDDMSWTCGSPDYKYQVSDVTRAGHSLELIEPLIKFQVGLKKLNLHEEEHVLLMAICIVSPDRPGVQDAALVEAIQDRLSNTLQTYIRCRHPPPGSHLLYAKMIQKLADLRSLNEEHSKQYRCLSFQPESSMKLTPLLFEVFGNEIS
To be noted: relative value, 1α,25-dihydroxyvitamin D3 taken as 100; X=(y/x)×100 from concentrations inhibiting 50% of [3H]-1α,25-dihydroxyvitamin D3 binding (0.1 nM) to VDR.

`C=C1/C(=C/C=C2\CCCC3(C)C2CCC3[C@H](C)CCCC(C)(C)O)C[C@H](O)[C@@H](C)[C@@H]1O` (stereo partly drawn) [Example 5, (5E,7E)-(1S,2R,3S)-2-methyl-9,10-seco-5,7,10(19)-cholestatriene-1,3,25-triol] registered a VDR binding property of 0.04.
In the case of `C=C1/C(=C/C=C2\CCCC3(C)C2CCC3[C@H](C)CCCC(C)(C)O)C[C@H](O)[C@H](C)[C@@H]1O` (stereo partly drawn) [Example 6, (5E,7E)-(1S,2S,3S)-2-methyl-9,10-seco-5,7,10(19)-cholestatriene-1,3,25-triol] it was 0.013.
`C=C1/C(=C/C=C2\CCCC3(C)C2CCC3[C@@H](C)CCCC(C)(C)O)C[C@H](O)[C@@H](C)[C@H]1O` (stereo partly drawn) [Example 15, (5E,7E)-(1R,2R,3S,20S)-2-methyl-9,10-seco-5,7,10(19)-cholestatriene-1,3,25-triol] yielded a VDR binding property of 0.2.
Next, `C=C1/C(=C/C=C2\CCC[C@]3(C)[C@@H]([C@H](C)CCCC(C)(C)O)CC[C@@H]23)C[C@@H](O)[C@@H](C)[C@H]1O` [Example 3, (5E,7E)-(1R,2R,3R)-2-methyl-9,10-seco-5,7,10(19)-cholestatriene-1,3,25-triol]: 0.1.
In turn, `C=C1/C(=C/C=C2\CCCC3(C)C2CCC3[C@@H](C)CCCC(C)(C)O)C[C@@H](O)[C@H](C)[C@@H]1O` (stereo partly drawn) [Example 10, (5E,7E)-(1S,2S,3R,20S)-2-methyl-9,10-seco-5,7,10(19)-cholestatriene-1,3,25-triol] yielded a VDR binding property of 1.
Next, `C=C1/C(=C/C=C2\CCCC3(C)C2CCC3[C@H](C)CCCC(C)(C)O)C[C@@H](O)[C@H](C)[C@@H]1O` (stereo partly drawn) [Example 2, (5E,7E)-(1S,2S,3R)-2-methyl-9,10-seco-5,7,10(19)-cholestatriene-1,3,25-triol]: 0.4; `C=C1C(=CC=C2CCCC3(C)C2CCC3C(C)CCCC(C)(C)O)CC(O)C(C)C1O` [Example 11, (5E,7E)-(1R,2R,3R,20S)-2-methyl-9,10-seco-5,7,10(19)-cholestatriene-1,3,25-triol]: 0.8; `C=C1C(=CC=C2CCCC3(C)C2CCC3C(C)CCCC(C)(C)O)CC(O)C(C)C1O` [Example 4, (5E,7E)-(1R,2S,3R)-2-methyl-9,10-seco-5,7,10(19)-cholestatriene-1,3,25-triol]: less than 0.01.
In the case of `C=C1/C(=C/C=C2\CCCC3(C)C2CCC3[C@H](C)CCCC(C)(C)O)C[C@H](O)[C@@H](C)[C@H]1O` (stereo partly drawn) [Example 7, (5E,7E)-(1R,2R,3S)-2-methyl-9,10-seco-5,7,10(19)-cholestatriene-1,3,25-triol] it was 0.03.
`C=C1/C(=C/C=C2\CCCC3(C)C2CCC3[C@@H](C)CCCC(C)(C)O)C[C@@H](O)[C@@H](C)[C@@H]1O` (stereo partly drawn) [Example 9, (5E,7E)-(1S,2R,3R,20S)-2-methyl-9,10-seco-5,7,10(19)-cholestatriene-1,3,25-triol] registered a VDR binding property of 45.
In the case of `C=C1/C(=C/C=C2\CCCC3(C)C2CCC3[C@@H](C)CCCC(C)(C)O)C[C@H](O)[C@H](C)[C@@H]1O` (stereo partly drawn) [Example 14, (5E,7E)-(1S,2S,3S,20S)-2-methyl-9,10-seco-5,7,10(19)-cholestatriene-1,3,25-triol] it was 0.2; in that of `C=C1/C(=C/C=C2\CCCC3(C)C2CCC3[C@H](C)CCCC(C)(C)O)C[C@H](O)[C@H](C)[C@H]1O` (stereo partly drawn) [Example 8, (5E,7E)-(1R,2S,3S)-2-methyl-9,10-seco-5,7,10(19)-cholestatriene-1,3,25-triol], less than 0.01.
In the case of `C=C1/C(=C/C=C2\CCCC3(C)C2CCC3[C@@H](C)CCCC(C)(C)O)C[C@H](O)[C@@H](C)[C@@H]1O` (stereo partly drawn) [Example 13, (5E,7E)-(1S,2R,3S,20S)-2-methyl-9,10-seco-5,7,10(19)-cholestatriene-1,3,25-triol] it was 0.5.
As to `C=C1/C(=C/C=C2\CCCC3(C)C2CCC3[C@@H](C)CCCC(C)(C)O)C[C@@H](O)[C@H](C)[C@H]1O` (stereo partly drawn) [Example 12, (5E,7E)-(1R,2S,3R,20S)-2-methyl-9,10-seco-5,7,10(19)-cholestatriene-1,3,25-triol], the VDR binding property was found to be 0.03.
In turn, `C=C1/C(=C/C=C2\CCCC3(C)C2CCC3[C@@H](C)CCCC(C)(C)O)C[C@H](O)[C@H](C)[C@H]1O` (stereo partly drawn) [Example 16, (5E,7E)-(1R,2S,3S,20S)-2-methyl-9,10-seco-5,7,10(19)-cholestatriene-1,3,25-triol] yielded a VDR binding property of 0.08.
Consider `C=C1/C(=C/C=C2\CCCC3(C)C2CCC3[C@H](C)CCCC(C)(C)O)C[C@@H](O)[C@@H](C)[C@@H]1O` (stereo partly drawn) [Example 1, (5E,7E)-(1S,2R,3R)-2-methyl-9,10-seco-5,7,10(19)-cholestatriene-1,3,25-triol], for which the VDR binding property came out at 8.6.
